Measurements published in patent US20260000624A1, “IONIZABLE LIPID CONTAINING BIODEGRADABLE DISULFIDE BOND AND LIPID NANOPARTICLES COMPRISING SAME” (ST PHARM CO., LTD., priority 2022, published 2026).

Columns and labels:
hepatocytes (HeLa) = experiment: GFP mRNA delivery, fluorescence intensity of lysed cells; assay type: cell-based; details: GFP mRNA LNP 0.1 μg/well, 24 hours, FIG. 4
Protocol: (§1) The test was conducted by delivering GFP mRNA molecules into hepatocytes (HeLa) using each lipid nanoparticle synthesized with various amine headgroups (Compound 1 to Compound 5, Compound 11, and Compound 12). The expression of the gene was confirmed by measuring the […] intensity.
Specifically, lipid nanoparticles encapsulated with 100 ng GFP mRNA (SEQ ID NO: 6) at a concentration of 0.1 μg/well (based on mRNA concentration) were treated into the hepatocyte line (Nexel, Korea) seeded in 96-well plate at 1×10^5 cells/well. After 24 hours, the cells were treated with 100 μl/well of cell lysis buffer (Thermofischer, US) and left at room temperature for 10 minutes, and then the fluorescence intensity of the lysed cells was measured using an Infinite M200 plate reader (Tecan, USA) (FIG. 4).

[1] = system: HeLa cells (HeLa-Luc) expressing luciferase; experiment: Luc siRNA delivery, luminescence intensity in luciferase-expressing HeLa cells; assay type: cell-based; details: Luc siRNA LNP 5 nM/well, 24 hours, FIG. 3
Protocol: as §1, with “siRNA molecules, which inhibit the expression of luciferase enzyme,” for “GFP mRNA molecules”, “engineered HeLa cells (HeLa-Luc) expressing luciferase” for “hepatocytes (HeLa)”
Specifically, lipid nanoparticles encapsulated with Luc siRNAs (SEQ ID NOs: 4 and 5) at a concentration of 5 nM/well (based on siRNA concentration) were treated into the Hella cell line (Nexel, Korea) seeded in 96-well plate at […]. After 24 hours, the cells were treated with 100 μl/well of Bright-Glo™ luciferase assay solution (promega, USA) and left at room temperature for 10 minutes, and then the luminescence intensity of the lysed cells was measured using an Infinite M200 plate reader (Tecan, USA) (FIG. 3).

C57BL/6 mice [2] = experiment: Luc mRNA delivery via intramuscular injection, bioluminescence by IVIS; assay type: in vivo; details: 0.1 mg/kg Luc mRNA, 3 hours, SM-102 control, FIG. 9
Protocol: Luc mRNA (SEQ ID NO: 1) was delivered to mice by intramuscular injection, and gene expression was confirmed by bioluminescence.
Specifically, lipid nanoparticles (221-SS 3 tail, 221-SS 4 tail alone and mixed) containing Luc mRNA were manufactured, as described above, followed by intramuscular injection into C57BL/6 mice at a concentration of 0.1 mg/kg (based on mRNA). After 3 hours, luciferin 0.25 mg/kg was administered intraperitoneally and bioluminescence was confirmed by IVIS (PerkinElmer, USA).

C57BL/6 mice [3] = experiment: Luc mRNA delivery via intravenous injection, bioluminescence by IVIS; assay type: in vivo; details: 0.1 mg/kg Luc mRNA, 3 hours, SM-102 control, FIG. 7
Protocol: To investigate the mRNA delivery of the 221-SS lipid nanoparticles, luciferase mRNA was delivered into mice, and gene expression was confirmed by bioluminescence.
Specifically, 221-SS 3 tail lipid nanoparticles encapsulated with Luc mRNA (SEQ ID NO: 1) were manufactured by the method of Example 2-3 above. The prepared lipid nanoparticles were injected intravenously into 7-week-old C57BL/6 mice at a dose of 0.1 mg/kg (based on mRNA), and 3 hours later, luciferin 0.25 mg/kg was administered intraperitoneally and bioluminescence was confirmed by IVIS (PerkinElmer, USA).
Next, in order to confirm the effect of the number of disulfide bond chains (tails), an in vivo assay using lipid nanoparticles encapsulated with 2 μg (0.1 mg/kg) of Luc mRNA (SEQ ID NO: 1) containing either 221-SS 3-tail (Compound 5) or 221-SS 4-tail (Compound 6) was performed via intravenous injection. The same experiment was also performed using lipid nanoparticles manufactured from a 1:1 mixture of 221-SS 3 chain and 221-SS 4 chain, wherein SM-102, FDA-approved ionizable lipid, was used as a control group.
Specifically, the respective lipid nanoparticles were injected intravenously into 7-week-old C57BL/6 mice at a dose of 0.1 mg/kg (based on mRNA), and 3 hours later, luciferin 0.25 mg/kg was administered intraperitoneally and bioluminescence was confirmed by IVIS (PerkinElmer, USA).

Compound | fluorescence intensity (GFP mRNA delivery) (hepatocytes (HeLa)) | luminescence intensity (Luc siRNA delivery) [1] | bioluminescence according to number of chains (C57BL/6 mice [2]) | bioluminescence according to number of chains (C57BL/6 mice [3])
CCCCCCCCCCCCSSCCN(CCSSCCCCCCCCCCCC)CCN(C)C [Compound 1] | higher efficiency | higher efficiency | – | –
CCCCCCCCCCCCSSCCNCCCN(C)CCCN(CCSSCCCCCCCCCCCC)CCSSCCCCCCCCCCCC [Compound 5] | higher efficiency | higher efficiency | superior to the negative control | better effects than the negative control
CCCCCCCCCCCCSSCCN(CCCN(C)CCCN(CCSSCCCCCCCCCCCC)CCSSCCCCCCCCCCCC)CCSSCCCCCCCCCCCC [Compound 6] | – | – | superior to the negative control | better effects than the negative control
